This passage reports Activity results from ChEMBL document CHEMBL1141269, “Pordamacrines A and B, alkaloids from Daphniphyllum macropodum” (2007).

The assay has as its system Thoracic aorta. Put plainly: Vasorelaxant activity against norepinephrine-induced contraction in Wistar rat thoracic aorta at 100 uM. More on the design: scale not given: the % may be the effect or the level left. The class given is functional.

`COC(=O)[C@@H]1C[C@@]23C4=C(CCC5CN6C[C@@H](C)C(O)(C=CC52CO)C63O)CC[C@@H]41` (some centres not stated) [PORDAMACRINE A]: the Activity came to 50%.
The result for `COC(=O)[C@@H]1C[C@@]23C4=C(CCC5CN6C[C@@H](C)C(C=CC52CO)C63O)CC[C@@H]41` (some centres not stated) [PORDAMACRINE B] reads 47.1%.
